Reference: US6358921B1, “Antimicrobial peptide compositions and method” (priority 1996, dated 2002)
pIC50: −log10 of the molar value.

Legend:
[1] = system: P. aeruginosa H187; type: cell-based, Pseudomonas aeruginosa; details: H187
Description: (§1) The following bacterial strains were utilized: Escherichia coli UB1005 (wt) and its antibiotic supersusceptible derivative DC2 (Clark, 1984); Excherichia coli SC9251 and its polymixin B rasistant mutant pmrA SC9252 (Peterson, et al., 1987) Pseudomonas aeruginosa H187 (wt) (Angus, et al., 1987) and its antibiotic-sensitive derivative H188 (Zimmerman, W, Antimicrob. Agents Chemother. 18: 94-100, 1980); methicillin sensitive Staphylococcus aureus K147 (Kreiswirth, et al., 1983); Staphylococcus aureus SAP0017, a methicillin resistant clinical isolate from Dr. A. Chow (University of British Columia); Bacillus subtilis, an environmental wt lab strain. Enterococcus faecalis are ATCC 29212 cells and Staphylococcus epidermidis was a clinical isolate from Dr. D. Speert (University of British Columbia). Antifungal activity was tested using a clinical lab isolate of Candida albicans. Salmonella typhinurium C57 and C610 (Fields, P.I., et al., Science 243: 1059-1062 (1989) Corynebacterium xerosis was an environmental isolate (University of British Columbia).
(§2) It is now apparent that agar-based assays severely underestimate antifungal activity as well as activity against gram negative microorganisms (Kondejewski, et al., 1996). Consequently, in the studies reported herein, a liquid-broth method was used to measure the antibiotic properties of the peptides. […] Briefly, cells were grown overnight at 37° C. in LB and diluted in the same medium. Serial dilutions of antibiotics were added to the microtitre plates in a volume of 100 μL followed by 10 μL of bacteria to give a final inoculum of 5×10^5 CFU/mL. Plates were incubated at 37° C. overnight and MICs determined as the lowest antibiotic concentration that inhibited growth.
(§3) The results from antimicrobial and hemolytic assays are combined to provide a “Therapeutic Index” (TI) for each peptide with respect to individual microorganisms. As reported herein, the TI is calculated as the hemolytic activity divided by the antimicrobial activity. The TI thus is a measure of specificity of the particular peptide for microbial membranes as opposed to human blood cell membranes. In the present studies, antimicrobial activities are reported as minimum inhibitory concentrations (MIC)—the lowest concentration of peptide (μg/ml) found to inhibit growth of the particular microbe. Hemolytic activity is reported as the concentration of peptide that effected complete lysis of blood cells after four hours. Thus, in the context of the present invention high TI values indicate microbial specificity and relative lack of toxicity.

[2] = system: S. typhinurium C610; type: cell-based, Salmonella typhinurium
Description: as §1
as §2, with “growth. […]” for “growth.”

[3] = system: B. subtilis; type: cell-based, Bacillus subtilis
Description: as §1
as §2, with “growth. […]” for “growth.”

[4] = system: S. epidermidis; type: cell-based, Staphylococcus epidermidis
Description: as §1
as §2, with “growth. […]” for “growth.”

[5] = system: E. faecalis; type: cell-based, Enterococcus faecalis
Description: as §1
as §2, with “growth. […]” for “growth.”

[6] = system: S. aureus SAP0017; type: cell-based, Staphylococcus aureus
Description: as §1, §2, §3

[7] = system: S. aureus K147; type: cell-based, Staphylococcus aureus
Description: as §1, §2, §3

[8] = Displacement of dansyl-polymyxin from LPS; type: binding, P. aeruginosa; details: read-out: LPS binding affinity: peptide concentration to displace 50% of dansyl-polymyxin B from LPS; Tables 1, 4, 7
Description: In order to determine whether ring size affects the interaction between the peptide and bacterial membranes, we studied the interaction between the GS ring analogs and bacterial lipopolysaccharide (LPS). It has been shown previously that dansyl-polymixin (DPX) is a good probe for cationic binding sites on both purified LPS as well as whole bacterial cells (Example 8; Moore, et al., 1986; Sawyer, et al., 1988; Hancock, 1981). […] The LPS binding activity of various GS analogs was investigated, as discussed above.
Dansyl-polymixin (DPX) displacement from P. aeruginosa LPS was measured as described (Moore, et al., 1986). Briefly, peptides were titrated into cuvettes containing 3 μg of LPS per mL and 2.5 μM dansyl-polymixin (approximately 90% saturation of LPS binding sites) in 1 mL of 5 mM sodium HEPES buffer, pH 7.0, and the decrease in fluorescence recorded. A plot of the inverse of the percent inhibition as a function of the inverse of inhibitor concentration gave a value for I50, the inhibitor concentration resulting in 50% displacement of dansyl-polymixin from LPS (−1/× intercept).

[9] = system: C. xeroses; type: cell-based, Corynebacterium xerosis
Description: as §1
as §2, with “growth. […]” for “growth.”

[10] = system: E. coli UB1005; type: cell-based, Escherichia coli; details: UB1005
Description: as §1
as §2, with “growth. […]” for “growth.”

[11] = system: E. coli DC2; type: cell-based, Escherichia coli; details: DC2
Description: as §1, §2, §3

[12] = system: P. aeruginosa H188; type: cell-based, Pseudomonas aeruginosa; details: H188
Description: as §1
as §2, with “growth. […]” for “growth.”

[13] = system: C. Albicans; type: cell-based, Candida albicans
Description: as §1
as §2, with “growth. […]” for “growth.”

[14] = system: S. typhinurium C587; type: cell-based, Salmonella typhinurium
Description: as §1
as §2, with “growth. […]” for “growth.”

Row | Compound | Minimum Inhibitory Concentration (activity) [1] | Minimum Inhibitory Concentration (activity) [2] | Minimum Inhibitory Concentration (activity) [3] | Minimum Inhibitory Concentration (activity) [4] | Minimum Inhibitory Concentration (activity) [5] | Minimum Inhibitory Concentration (activity) [6] | Minimum Inhibitory Concentration (activity) [7] | pIC50 [8] | Minimum Inhibitory Concentration (activity) [9] | Minimum Inhibitory Concentration (activity) [10] | Minimum Inhibitory Concentration (activity) [11] | Minimum Inhibitory Concentration (activity) [12] | Minimum Inhibitory Concentration (activity) [13] | Minimum Inhibitory Concentration (activity) [14]
1 | CC(C)C[C@@H]1NC(=O)[C@H](CCCCN)NC(=O)[C@H](C(C)C)NC(=O)[C@@H]2CCCN2C(=O)[C@@H](Cc2ccc(O)cc2)NC(=O)[C@H](CC(C)C)NC(=O)[C@H](CCCCN)NC(=O)[C@H](C(C)C)NC(=O)[C@H](CCCCN)NC(=O)[C@H](CC(C)C)NC(=O)[C@@H]2CCCN2C(=O)[C@@H](Cc2ccc(O)cc2)NC(=O)[C@H](C(C)C)NC(=O)[C@@H](CCCCN)NC1=O [GS14K4] | 25 µg/mL | 4 µg/mL | 25 µg/mL | 2 µg/mL | 1.5 µg/mL | 50 µg/mL | 100 µg/mL | 4.03 | 1.5 µg/mL | 6.2 µg/mL | 3.1 µg/mL | 3.1 µg/mL |  | 
2 | CC(C)C[C@@H]1NC(=O)[C@H](CCCCN)NC(=O)[C@H](C(C)C)NC(=O)[C@@H]2CCCN2C(=O)[C@@H](Cc2ccc(O)cc2)NC(=O)[C@H](CC(C)C)NC(=O)[C@@H](CCCCN)NC(=O)[C@H](C(C)C)NC(=O)[C@H](CCCCN)NC(=O)[C@H](CC(C)C)NC(=O)[C@@H]2CCCN2C(=O)[C@@H](Cc2ccc(O)cc2)NC(=O)[C@H](C(C)C)NC(=O)[C@H](CCCCN)NC1=O [GS14K11] | 37 µg/mL | 6.2 µg/mL | 25 µg/mL | 3.1 µg/mL | 1.5 µg/mL | 25 µg/mL | 25 µg/mL | 4.30 | 0.8 µg/mL | 6.2 µg/mL | 3.1 µg/mL | 5 µg/mL | 6.2 µg/mL | 
3 | CC(C)C[C@@H]1NC(=O)[C@H](CCCCN)NC(=O)[C@H](C(C)C)NC(=O)[C@@H]2CCCN2C(=O)[C@@H](Cc2ccc(O)cc2)NC(=O)[C@H](CC(C)C)NC(=O)[C@H](CCCCN)NC(=O)[C@H](C(C)C)NC(=O)[C@H](CCCCN)NC(=O)[C@@H](CC(C)C)NC(=O)[C@@H]2CCCN2C(=O)[C@@H](Cc2ccc(O)cc2)NC(=O)[C@H](C(C)C)NC(=O)[C@H](CCCCN)NC1=O [GS14L8] | 37 µg/mL | 6.2 µg/mL |  | 3.1 µg/mL | 1.5 µg/mL | 25 µg/mL | 50 µg/mL | 4.21 | 0.8 µg/mL | 6.2 µg/mL | 3.1 µg/mL | 3.1 µg/mL | 6.2 µg/mL | 
4 | CC(C)C[C@@H]1NC(=O)[C@H](CCCCN)NC(=O)[C@H](C(C)C)NC(=O)[C@@H]2CCCN2C(=O)[C@@H](Cc2ccc(O)cc2)NC(=O)[C@H](CC(C)C)NC(=O)[C@H](CCCCN)NC(=O)[C@H](C(C)C)NC(=O)[C@H](CCCCN)NC(=O)[C@H](CC(C)C)NC(=O)[C@@H]2CCCN2C(=O)[C@@H](Cc2ccc(O)cc2)NC(=O)[C@@H](C(C)C)NC(=O)[C@H](CCCCN)NC1=O [GS14V5] | 100 µg/mL |  | 200 µg/mL | 3.1 µg/mL | 1.5 µg/mL | 50 µg/mL | 100 µg/mL | 4.48 |  | 15 µg/mL | 3.1 µg/mL | 62 µg/mL | 6.2 µg/mL | 100 µg/mL
5 | CC(C)C[C@@H]1NC(=O)[C@H](CCCCN)NC(=O)[C@H](C(C)C)NC(=O)[C@@H]2CCCN2C(=O)[C@@H](Cc2ccc(O)cc2)NC(=O)[C@H](CC(C)C)NC(=O)[C@H](CCCCN)NC(=O)[C@@H](C(C)C)NC(=O)[C@H](CCCCN)NC(=O)[C@H](CC(C)C)NC(=O)[C@@H]2CCCN2C(=O)[C@@H](Cc2ccc(O)cc2)NC(=O)[C@H](C(C)C)NC(=O)[C@H](CCCCN)NC1=O [GS14V10] | >200 µg/mL | 200 µg/mL |  | 3.1 µg/mL | 1.5 µg/mL | 50 µg/mL | 200 µg/mL | 4.74 | 0.8 µg/mL | 200 µg/mL | 3.1 µg/mL | 200 µg/mL | 17 µg/mL | >200 µg/mL
6 | CC(C)C[C@@H]1NC(=O)[C@H](CCCCN)NC(=O)[C@H](C(C)C)NC(=O)[C@@H]2CCCN2C(=O)[C@@H](Cc2ccc(O)cc2)NC(=O)[C@H](CC(C)C)NC(=O)[C@H](CCCCN)NC(=O)[C@H](C(C)C)NC(=O)[C@H](CCCCN)NC(=O)[C@H](CC(C)C)NC(=O)[C@@H]2CCCN2C(=O)[C@H](Cc2ccc(O)cc2)NC(=O)[C@H](C(C)C)NC(=O)[C@H](CCCCN)NC1=O [GS14Y6] | 200 µg/mL | 100 µg/mL | >200 µg/mL | 6.2 µg/mL | 3.1 µg/mL | >200 µg/mL | >200 µg/mL | 4.70 | 1 µg/mL | 50 µg/mL | 3.1 µg/mL | 50 µg/mL |  | >200 µg/mL
